Like-named read-outs stand apart in the source and are kept apart here.
Key:
[1] = test system: mixed suspension of Pseudomonas aeruginosa, Proteus rettgeri, Serratia marcescans, Aeromonas hydrophila, Alcaligenes species, Pseudomonas cepacia and …; assay type: cell-based, mixed bacteria; set-up: key: 5: Confluent growth; 4: Heavy growth; 3: Moderate growth; 2: Slight growth; 1: Trace growth; 0: No growth
Protocol: (§1) An inoculum was prepared containing Pseudomonas aeruginosa, Proteus rettgeri, Serratia marcescans, Aeromonas hydrophila, Alcaligenes species, Pseudomonas cepacia and Pseudomonas putida by culturing the individual organisms onto nutrient agar and incubating for 24 hours at 30° C. Each of the individual suspensions of the test organisms were then prepared at a concentration of 10E8 cfu/ml in one quarter strength Ringer's solution by means of a Thoma counting chamber. A mixed suspension was obtained by mixing equal volumes of the individual suspensions. This procedure was repeated for each of the three challenges to which the test substrates were subjected, and the concentration of micro-organisms in each substrate after challenge was 2×10E6 cfu/ml.
(§2) Aliquots (50 parts) of a standard laboratory acrylic latex and an emulsion paint were prepared containing 0, 10, 25, 50, 100, 125, 250, 500 and 750 ppm of the 1:2 zinc complex of 3-hydroxy-4-methylthiazol-2(3H)thione which was prepared as a 1% dispersion in an aqueous solution of 0.1M tetrasodium pyrophosphate. A 1% dispersion of the 1:2 zinc complex of 1-hydroxy-2-pyridinethiol in an aqueous solution of 0.1M tetrasodiumpyrophosphate was evaluated in the same manner.
(§3) The test substrates were then stored at 40° C. for seven days and were then challenged on three separate occasions with 1 part by volume of the mixed suspension of micro-organisms. All the substrates were then incubated at 30° C. and examined for the presence of viable bacteria after 1, 3 and 7 days after each challenge (Phase 1).
(§4) Those samples which had achieved sterility were then stored for a further 8 weeks at 30° C., and were then rechallenged and the number of viable organisms again determined (Phase 2).
(§5) Viable bacteria were detected by streaking small aliquots onto nutrient agar followed by incubation at 30° C. for 2 days. The presence or absence of colonies was determined visually. […]

[2] = test system: mixed suspension of Pseudomonas aeruginosa, Proteus rettgeri, Serratia marcescans, Aeromonas hydrophila, Alcaligenes species, Pseudomonas cepacia and …; test: repeated bacterial challenge test in acrylic (emulsion) paint; assay type: cell-based, mixed bacteria; set-up: key: 5: Confluent growth; 4: Heavy growth; 3: Moderate growth; 2: Slight growth; 1: Trace growth; 0: No growth
Protocol: as §1, §2, §3, §4, §5

[3] = aqueous solubility of zinc complex after milling in pyrophosphate solution and dilution with distilled water until clear; assay type: physicochemical
Protocol: The concentration of the 2:1 zinc complex was then determined.
The zinc complex was milled in a 0.1 molar solution of tetrasodium pyrophosphate as described in Example 1. This was then diluted with distilled water until a clear solution was obtained.
These solutions were prepared by the method described in Example 1.

For `Cc1csc(=S)n1[O-].Cc1csc(=S)n1[O-].[Zn+2]` [Compound A, 1:2 zinc complex of 3-hydroxy-4-methylthiazol-2(3H)thione], which growth rating ([1]; latex 10 ppm, Phase 1 Chall 1, day 1) is on record?
The growth rating was 5.

And the growth rating ([1]; latex 10 ppm, Phase 1 Chall 1, day 3)?
The growth rating was 5.

And the growth rating ([1]; latex 10 ppm, Phase 1 Chall 1, day 7)?
The growth rating was 4.

What about the growth rating ([1]; latex 10 ppm, Phase 1 Chall 2, day 1) of the same compound?
Its growth rating is 5.

And the growth rating ([1]; latex 10 ppm, Phase 1 Chall 2, day 3)?
Its growth rating is 5.

And the growth rating ([1]; latex 10 ppm, Phase 1 Chall 2, day 7)?
The growth rating was 5.

What about the growth rating ([1]; latex 10 ppm, Phase 1 Chall 3, day 1) of the same compound?
Its growth rating is 5.

What about the growth rating ([1]; latex 10 ppm, Phase 1 Chall 3, day 3) of the same compound?
The growth rating was 5.

What about the growth rating ([1]; latex 10 ppm, Phase 1 Chall 3, day 7) of the same compound?
The growth rating was 5.

What about the growth rating ([1]; latex 25 ppm, Phase 1 Chall 1, day 1) of the same compound?
The growth rating was 5.

What about the growth rating ([1]; latex 25 ppm, Phase 1 Chall 1, day 3) of the same compound?
Its growth rating is 5.

What about the growth rating ([1]; latex 25 ppm, Phase 1 Chall 1, day 7) of the same compound?
Its growth rating is 4.

And the growth rating ([1]; latex 25 ppm, Phase 1 Chall 2, day 1)?
The growth rating was 5.

What about the growth rating ([1]; latex 25 ppm, Phase 1 Chall 2, day 3) of the same compound?
The growth rating was 5.

What about the growth rating ([1]; latex 25 ppm, Phase 1 Chall 2, day 7) of the same compound?
Its growth rating is 3.

What about the growth rating ([1]; latex 25 ppm, Phase 1 Chall 3, day 1) of the same compound?
The growth rating was 5.

And the growth rating ([1]; latex 25 ppm, Phase 1 Chall 3, day 3)?
The growth rating was 5.

And the growth rating ([1]; latex 25 ppm, Phase 1 Chall 3, day 7)?
Its growth rating is 5.

And the growth rating ([1]; latex 50 ppm, Phase 1 Chall 1, day 1)?
The growth rating was 5.

What about the growth rating ([1]; latex 50 ppm, Phase 1 Chall 1, day 3) of the same compound?
Its growth rating is 2.

And the growth rating ([1]; latex 50 ppm, Phase 1 Chall 1, day 7)?
Its growth rating is 2.

What about the growth rating ([1]; latex 50 ppm, Phase 1 Chall 2, day 1) of the same compound?
Its growth rating is 5.

What about the growth rating ([1]; latex 50 ppm, Phase 1 Chall 2, day 3) of the same compound?
The growth rating was 4.

And the growth rating ([1]; latex 50 ppm, Phase 1 Chall 2, day 7)?
The growth rating was 0.

And the growth rating ([1]; latex 50 ppm, Phase 1 Chall 3, day 1)?
The growth rating was 5.

And the growth rating ([1]; latex 50 ppm, Phase 1 Chall 3, day 3)?
The growth rating was 4.

And the growth rating ([1]; latex 50 ppm, Phase 1 Chall 3, day 7)?
The growth rating was 0.

What about the growth rating ([1]; latex 100 ppm, Phase 1 Chall 1, day 1) of the same compound?
Its growth rating is 5.

And the growth rating ([1]; latex 100 ppm, Phase 1 Chall 1, day 3)?
Its growth rating is 3.

And the growth rating ([1]; latex 100 ppm, Phase 1 Chall 1, day 7)?
The growth rating was 0.

And the growth rating ([1]; latex 100 ppm, Phase 1 Chall 2, day 1)?
The growth rating was 4.

And the growth rating ([1]; latex 100 ppm, Phase 1 Chall 2, day 3)?
Its growth rating is 4.

And the growth rating ([1]; latex 100 ppm, Phase 1 Chall 2, day 7)?
The growth rating was 0.

And the growth rating ([1]; latex 100 ppm, Phase 1 Chall 3, day 1)?
The growth rating was 4.

And the growth rating ([1]; latex 100 ppm, Phase 1 Chall 3, day 3)?
The growth rating was 4.

What about the growth rating ([1]; latex 100 ppm, Phase 1 Chall 3, day 7) of the same compound?
The growth rating was 0.

What about the growth rating ([1]; latex 125 ppm, Phase 1 Chall 1, day 1) of the same compound?
Its growth rating is 5.

What about the growth rating ([1]; latex 125 ppm, Phase 1 Chall 1, day 3) of the same compound?
The growth rating was 3.

What about the growth rating ([1]; latex 125 ppm, Phase 1 Chall 1, day 7) of the same compound?
The growth rating was 0.

What about the growth rating ([1]; latex 125 ppm, Phase 1 Chall 2, day 1) of the same compound?
Its growth rating is 4.

And the growth rating ([1]; latex 125 ppm, Phase 1 Chall 2, day 3)?
The growth rating was 4.

And the growth rating ([1]; latex 125 ppm, Phase 1 Chall 2, day 7)?
Its growth rating is 0.

And the growth rating ([1]; latex 125 ppm, Phase 1 Chall 3, day 1)?
The growth rating was 4.

What about the growth rating ([1]; latex 125 ppm, Phase 1 Chall 3, day 3) of the same compound?
Its growth rating is 4.

What about the growth rating ([1]; latex 125 ppm, Phase 1 Chall 3, day 7) of the same compound?
Its growth rating is 0.

What about the growth rating ([1]; latex 250 ppm, Phase 1 Chall 1, day 1) of the same compound?
The growth rating was 5.

And the growth rating ([1]; latex 250 ppm, Phase 1 Chall 1, day 3)?
The growth rating was 3.

And the growth rating ([1]; latex 250 ppm, Phase 1 Chall 1, day 7)?
The growth rating was 0.

What about the growth rating ([1]; latex 250 ppm, Phase 1 Chall 2, day 1) of the same compound?
The growth rating was 4.

And the growth rating ([1]; latex 250 ppm, Phase 1 Chall 2, day 3)?
The growth rating was 4.

And the growth rating ([1]; latex 250 ppm, Phase 1 Chall 2, day 7)?
Its growth rating is 0.

What about the growth rating ([1]; latex 250 ppm, Phase 1 Chall 3, day 1) of the same compound?
The growth rating was 4.

And the growth rating ([1]; latex 250 ppm, Phase 1 Chall 3, day 3)?
The growth rating was 4.

What about the growth rating ([1]; latex 250 ppm, Phase 1 Chall 3, day 7) of the same compound?
Its growth rating is 0.

And the growth rating ([1]; latex 500 ppm, Phase 1 Chall 1, day 1)?
Its growth rating is 5.

What about the growth rating ([1]; latex 500 ppm, Phase 1 Chall 1, day 3) of the same compound?
The growth rating was 3.

And the growth rating ([1]; latex 500 ppm, Phase 1 Chall 1, day 7)?
The growth rating was 0.

What about the growth rating ([1]; latex 500 ppm, Phase 1 Chall 2, day 1) of the same compound?
Its growth rating is 4.

And the growth rating ([1]; latex 500 ppm, Phase 1 Chall 2, day 3)?
The growth rating was 4.

What about the growth rating ([1]; latex 500 ppm, Phase 1 Chall 2, day 7) of the same compound?
The growth rating was 0.

What about the growth rating ([1]; latex 500 ppm, Phase 1 Chall 3, day 1) of the same compound?
Its growth rating is 3.

And the growth rating ([1]; latex 500 ppm, Phase 1 Chall 3, day 3)?
The growth rating was 2.

And the growth rating ([1]; latex 500 ppm, Phase 1 Chall 3, day 7)?
Its growth rating is 0.

And the growth rating ([1]; latex 750 ppm, Phase 1 Chall 1, day 1)?
The growth rating was 4.

And the growth rating ([1]; latex 750 ppm, Phase 1 Chall 1, day 3)?
The growth rating was 2.

And the growth rating ([1]; latex 750 ppm, Phase 1 Chall 1, day 7)?
The growth rating was 0.

And the growth rating ([1]; latex 750 ppm, Phase 1 Chall 2, day 1)?
The growth rating was 3.

What about the growth rating ([1]; latex 750 ppm, Phase 1 Chall 2, day 3) of the same compound?
The growth rating was 3.

And the growth rating ([1]; latex 750 ppm, Phase 1 Chall 2, day 7)?
The growth rating was 0.

What about the growth rating ([1]; latex 750 ppm, Phase 1 Chall 3, day 1) of the same compound?
Its growth rating is 2.

And the growth rating ([1]; latex 750 ppm, Phase 1 Chall 3, day 3)?
The growth rating was 0.

And the growth rating ([1]; latex 750 ppm, Phase 1 Chall 3, day 7)?
The growth rating was 0.

What about the growth rating ([2]; paint 10 ppm, Phase 1 Chall 1, day 1) of the same compound?
The growth rating was 5.

What about the growth rating ([2]; paint 10 ppm, Phase 1 Chall 1, day 3) of the same compound?
Its growth rating is 5.

What about the growth rating ([2]; paint 10 ppm, Phase 1 Chall 1, day 7) of the same compound?
Its growth rating is 0.

And the growth rating ([2]; paint 10 ppm, Phase 1 Chall 2, day 1)?
Its growth rating is 5.

And the growth rating ([2]; paint 10 ppm, Phase 1 Chall 2, day 3)?
The growth rating was 5.

What about the growth rating ([2]; paint 10 ppm, Phase 1 Chall 2, day 7) of the same compound?
The growth rating was 5.

And the growth rating ([2]; paint 10 ppm, Phase 1 Chall 3, day 1)?
Its growth rating is 5.

And the growth rating ([2]; paint 10 ppm, Phase 1 Chall 3, day 3)?
Its growth rating is 5.

And the growth rating ([2]; paint 10 ppm, Phase 1 Chall 3, day 7)?
Its growth rating is 5.

And the growth rating ([2]; paint 25 ppm, Phase 1 Chall 1, day 1)?
The growth rating was 5.

And the growth rating ([2]; paint 25 ppm, Phase 1 Chall 1, day 3)?
Its growth rating is 3.

What about the growth rating ([2]; paint 25 ppm, Phase 1 Chall 1, day 7) of the same compound?
The growth rating was 0.

And the growth rating ([2]; paint 25 ppm, Phase 1 Chall 2, day 1)?
Its growth rating is 5.

And the growth rating ([2]; paint 25 ppm, Phase 1 Chall 2, day 3)?
Its growth rating is 4.

And the growth rating ([2]; paint 25 ppm, Phase 1 Chall 2, day 7)?
The growth rating was 0.

What about the growth rating ([2]; paint 25 ppm, Phase 1 Chall 3, day 1) of the same compound?
Its growth rating is 5.

And the growth rating ([2]; paint 25 ppm, Phase 1 Chall 3, day 3)?
The growth rating was 5.

What about the growth rating ([2]; paint 25 ppm, Phase 1 Chall 3, day 7) of the same compound?
The growth rating was 4.

And the growth rating ([2]; paint 50 ppm, Phase 1 Chall 1, day 1)?
The growth rating was 5.

And the growth rating ([2]; paint 50 ppm, Phase 1 Chall 1, day 3)?
The growth rating was 3.

What about the growth rating ([2]; paint 50 ppm, Phase 1 Chall 1, day 7) of the same compound?
Its growth rating is 0.

And the growth rating ([2]; paint 50 ppm, Phase 1 Chall 2, day 1)?
The growth rating was 5.

And the growth rating ([2]; paint 50 ppm, Phase 1 Chall 2, day 3)?
The growth rating was 4.

What about the growth rating ([2]; paint 50 ppm, Phase 1 Chall 2, day 7) of the same compound?
Its growth rating is 0.

What about the growth rating ([2]; paint 50 ppm, Phase 1 Chall 3, day 1) of the same compound?
Its growth rating is 5.

What about the growth rating ([2]; paint 50 ppm, Phase 1 Chall 3, day 3) of the same compound?
Its growth rating is 4.

What about the growth rating ([2]; paint 50 ppm, Phase 1 Chall 3, day 7) of the same compound?
The growth rating was 0.

What about the growth rating ([2]; paint 100 ppm, Phase 1 Chall 1, day 1) of the same compound?
The growth rating was 5.

And the aqueous solubility ([3]; finely milled sample, no pyrophosphate)?
Its aqueous solubility is “about 5 ppm”.

And the “solubility in the presence of the pyrophosphate anion” value ([3]; milled in 0.1 molar tetrasodium pyrophosphate, diluted with distilled water)?
The value was “about 10,000 ppm”.

— US5451564A, “Antimicrobial composition comprising N-hydroxy heterocyclic thiones” (priority 1991, dated 1995)
